Laboratory results taken from US20230181905A1, “Systems, Devices, and Methods for Enhancing the Neuroprotective Effects of Non-Invasive Gamma Stimulation with Pharmacological Agents” (Massachusetts Institute of Technology, priority 2021, published 2023).

How the values were obtained:
5×FAD mice = assay: Novel object recognition test in 5×FAD mice; format: in vivo, mouse; settings: chance level 50%, control 51.33±4.15
Experimental: Given the neuroprotective effect of Plx3397+GENUS treatment, whether this treatment also impacted learning and memory was evaluated. Mice were tested in an open field (OF) and assessed for changes in anxiety and activity levels, followed by a novel object recognition (NOR) test of memory. 10-month-1d 5×FAD mice were treated with Plx3397. Following 20 days administration of Plx3397 chow, untreated- and Plx3397 treated 5×FAD mice (which continued PLX administration) were subjected to 30 days of daily GENUS. Mice were tested in OF and NOR during the last week of these treatments. […] Next, CK-p25 mice were treated for 42 days and assessed behavioral performance.
For OF, mice were introduced into an open field box (dimensions: length=460 mm, width=460 mm and height=400 mm; TSE-Systems) and were tracked using Noldus (Ethovision) for 12 min, with time spent in the center and peripheral area of the arena measured. […] Mouse behavior was monitored for 7 min. Time spent exploring both the familiar and novel objects was recorded using Noldus and computed offline. Percentage of novelty preference index was calculated as follows: time exploring novel object (Nt) divided by total time exploring novel and familiar (Ft) objects and presented in %−{[Nt/Nt+Ft]*100}.

[1] = tested on: excitatory neurons and interneurons of the visual cortex; assay: In vivo electrophysiology: single unit spiking and LFP phase locking; set-up: species or system mouse
Experimental: Next, principal component analyses was performed using action potential properties, isolated single units, and further separated them into excitatory and interneurons (FIG. 15A).
Single units were manually isolated by drawing cluster boundaries around the 3D projection of the recorded spikes, presented in SpikeSort3D software (Neuralynx).
The relationship between spike firing times and LFP gamma phase was calculated by mean resultant length using the Circular Statistics Toolbox. Briefly, spikes were sorted and LFP traces were filtered using the continuous wavelet transform returning the instantaneous signal phase and amplitudes. Spike times were linearly interpolated to determine phase, with peaks and troughs of gamma defined as 0 and ±pi radians respectively. The resulting phase values were binned to generate firing probabilities, for each 20-degree interval. […] All analyses were performed using MATLAB.
Spikes: Single units were manually isolated by drawing cluster boundaries around the 3D projection of the recorded spikes, presented in SpikeSort3D software (Neuralynx).
Single unit—LFP phase locking: The relationship between spike spiking times and LFP gamma phase was calculated by mean resultant length using the Circular Statistics Toolbox MATLAB File Exchange Function.
Briefly, spikes were sorted and LFP traces were filtered using the continuous wavelet transform returning the instantaneous signal phase and amplitudes. Spike times were linearly interpolated to determine phase, with peaks and troughs of gamma defined as 0 and ±pi radians respectively. The resulting phase values were binned to generate spiking probabilities, for each 20-degree interval. […] All analyses were performed using MATLAB. All in vivo electrophysiological analyses were conducted in MATLAB (Mathworks, #R2019a) utilizing signal processing and image processing toolboxes.

[2] = tested on: LFP oscillations in the visual cortex; assay: In vivo electrophysiology: LFP power and 40 Hz entrainment in visual cortex; set-up: species or system mouse
Experimental: Next, it was aimed to understand how these treatments impacted the LFP oscillations and neuronal action potentials. First, in vivo awake animal electrophysiology was performed using high-density linear probes and verified whether 5×FAD mice with reduced microglia by Plx3397 treatment can entrain 40 Hz sensory stimulation. […] At the group level gamma stimulation increased gamma but not theta power as expected based on previous findings (2 W ANOVA, groups x frequency, F (1,6)=32.03, P=0.0013) (FIGS. 15A, 15B).
Mice were anaesthetized with isoflurane, restrained in a stereotactic apparatus and craniotomies were made exposing the visual cortex (AP: −3.2 & ML: +2.5). […] The reference electrode was targeted to the white matter tract above the hippocampus. Mice were allowed to recover for a period of 4 days.
Following a 2-3-day habitation period for the recording, recordings commenced with the animal allowed to move freely in their home cages. Data were acquired using Neuralynx SX system (Neuralynx, Bozeman, Mont., USA) and signals were sampled at 32,000 Hz. The position of animals was tracked using red light-emitting diodes affixed to the probes. At the conclusion of the experiment, mice underwent terminal anesthesia and electrode positions were marked by electrolytic lesioning of brain tissue with […] current for 10 s through each electrode individually, to confirm their anatomical location.
LFPs were first filtered to the Nyquist frequency of the target sampling rate then downsampled to 1000 Hz. Power spectral analyses were performed using the pwelch function in MATLAB using a 500 ms time window with a 50% overlap.
Mice were anaesthetized with isoflurane, restrained in a stereotactic apparatus and craniotomies were made exposing the visual cortex. Specifically, a 2×2 mm piece of skull was removed using a dental drill, which was above the V1 (stereotaxic 826 coordinates relative to bregma; AP −3.2; ML+2.5); during this entire procedure, the dura was kept intact and moist with saline. Following the skull removal from above both the right V1, two additional drilling holes above the frontal cortex were made and two skull screws were placed. […] The probe was grounded to skull screw above the cerebellum. Petroleum jelly (Vaseline, 100% white petrolatum) was gently applied on the cranial window without touching the probe/electrodes, which protected both the brain and probe/electrode. Next, the probe was further lowered and/or adjusted to reach the target depth. Finally, the probe was cemented on the skull with dental cements, first with a metabond (Parkell, C&B Metabond Quick Adhesive Cement System, #836 SKU:S380) followed by a dental cement from Steolting (#51459). Mice were allowed to recover for a period of 4 days.
Data analyses: LFPs were first filtered to the Nyquist frequency of the target sampling rate then down-sampled to 1000 Hz. Power spectral analyses were performed using the pwelch function in MATLAB using a 500 ms time window with a 50% overlap.
Time-frequency representation of LFP: The LFP data were down sampled to 1,000 Hz. For the calculation of the wavelet power spectrum, the continuous wavelet transforms (CWT) was applied to the LFP using complex Morlet wavelets returning amplitudes at 226 intervals between 1-100 Hz. CWT based wavelet power spectrum was shown in FIG. 21A, FIG. 26C, and FIG. 27C. For visualizing 40 Hz entrainment at finer frequency resolution, multitaper spectral analysis using Chronux toolbox was used.

[3] = 5×FAD mice, Plx3397 diet 50 days vs control
[4] = Plx3397 treated 5×FAD mice, baseline
[5] = Plx3397 treated 5×FAD mice, during acute 40 Hz entrainment

For `FC(F)(F)c1ccc(CNc2ccc(Cc3c[nH]c4ncc(Cl)cc34)cn2)cn1` [Plx3397, Pexidartinib], the “preference for the novel object in the NOR test (novelty index)” value (5×FAD mice) was 57.55±7.00%, the “overall mean spiking rate of E-neurons and I-neurons” value [1, 3] was “no differences” and the “% of E-neurons and I-neurons phase-locked to 3-12 Hz theta oscillations” value ([1]; 5×FAD mice, Plx3397 vs control) was “reduction”. The “percentage of E-neurons and I-neurons phase-locked to 30-50 Hz gamma oscillations” value ([1]; 5×FAD mice, Plx3397 vs control) was “less phase-locked”, the “strength of phase-locked neurons to gamma oscillations” value ([1]; 5×FAD mice, Plx3397 vs control) was “without significant difference” and the “strength of theta phase-locking of neurons” value ([1]; 5×FAD mice, Plx3397 vs control) was “increase”. For the same molecule, the “I-neurons showing 40 Hz entrainment” value ([1]; Plx3397 treated 5×FAD mice, acute 40 Hz entrainment, of the 47 I-neurons) was 13 neurons, the “percentage of I-neurons phase-locked to gamma” value [1, 4] was 34.04% and the “percentage of gamma phase-locked E-neurons” value [1, 4] was 35.64%. For the same molecule, the “percentage of I-neurons phase-locked to gamma” value [1, 5] was 65.95%, the “percentage of gamma phase-locked E-neurons” value [1, 5] was 46.53% and the “gamma phase-locking strength of E-neurons and I-neurons” value ([1]; Plx3397 treated 5×FAD mice, during acute 40 Hz entrainment vs baseline) was “enhanced”. For the same molecule, the “entrainment of 40 Hz sensory stimulation” value ([2]; 5×FAD mice with microglia reduced by Plx3397, awake recording) was “can indeed entrain 40 Hz”, the LFP spectral power [2, 3] was “no significant difference” and the “time-resolved LFP gamma and theta power” value ([2]; 5×FAD mice, chronic Plx3397 administration) was “elevated power of gamma and theta that occur incongruently”. For the same molecule, the gamma response latency ([2]; 5×FAD mice, untreated vs Plx3397 treated) was “comparable”, the “power of 40 Hz entrainment compared to control 5×FAD mice” value ([2]; Plx3397 administered 5×FAD mice, acute 40 Hz stimulation) was “higher” and the aberrant theta-bursts ([2]; Plx3397 treated 5×FAD mice during acute 40 Hz visual stimulation) was “reduced”.
